Test results taken from PMC12467068, “Design, Synthesis, and Computational Insights into PKMYT1 Inhibitors for the Treatment of Breast Cancer” (Biomedicines, 2025).
“Also recorded” adds a separate entry of the source.

Assays:
[1] = system: HCC1569 cells; experiment: Cell apoptosis assay (Annexin V-FITC/PI flow cytometry); format: cell-based; design: Q1 / Q2 / Q3 / Q4: unit not given here
Experimental: HCC1569 cells (1 × 10^5/well) were seeded in 6-well plates and cultured for 24 h at 37 °C, 5% CO2. MY-14 at varying concentrations were added, followed by 5-day incubation. Cells were trypsinized and pelleted by centrifugation. Subsequent analysis was performed per the Medilunbio kit protocol: staining was conducted with propidium iodide (PI) and Annexin V-FITC. After 15 min incubation, samples were analyzed by flow cytometry.

[2] = system: A549 cells; experiment: Anti-proliferative activity in low-expressing CCNE1 cells A549; format: cell-based
[3] = system: OVCAR3 cells; experiment: Cell cloning (colony formation) assay; format: cell-based; settings: OVCAR3, 14 days of incubation, varying concentrations
Experimental: OVCAR3 cells (4 × 10^3/well) were seeded into 6-well plates and incubated for 24 h at 37 °C in a 5% CO2 atmosphere. Compound MY-14 was then added at varying concentrations, followed by a 14-day incubation period. Subsequently, cells were fixed with a 4% paraformaldehyde solution and stained using crystal violet solution, after which colonies were quantified using ImageJ 1.54 software.

[4] = system: HCC1569 cells; experiment: Cell cycle assay (PI flow cytometry); format: cell-based
Experimental: HCC1569 cells (1 × 10^5/well) were seeded in 6-well plates and cultured for 24 h at 37 °C under 5% CO2. MY-14 at varying concentrations were added, followed by 5-day incubation. Cells were trypsinized, pelleted by centrifugation, and fixed with 70% ethanol. Subsequent staining was performed with propidium iodide (PI) and RNase A according to the Beyotime kit protocol. After 30 min incubation at 37 °C, samples were analyzed by flow cytometry.

[5] = system: OVCAR3 cells; experiment: Cell proliferation assay (CCK-8), OVCAR3; format: cell-based; settings: CCNE1-amplified ovarian cancer cells, 5-day incubation, mean ± SD, n = 3
Experimental: (§1) HCC1569 and OVCAR3 cells (2 × 10^3/well) were seeded in 96-well plates and cultured for 24 h at 37 °C, 5% CO2. Compounds at varying concentrations were added, followed by 5-day incubation. Cell viability was assessed using Cell Counting Kit-8 (CCK-8) with absorbance measurement at 450 nm. HCC1569 (BNCC341698) was purchased from BNCC and OVCAR3 (CL-0178) was purchased from Procell.

[6] = system: HCC1569 cells; experiment: Cell proliferation assay (CCK-8), HCC1569; format: cell-based; settings: CCNE1-amplified breast cancer cells, 5-day incubation, mean ± SD, n = 3
Experimental: as §1

[7] = molecular target: T1, PKMYT1 (Homo sapiens, UniProt Q99640); experiment: PKMYT1 enzyme inhibition assay (LanthaScreen Eu kinase binding method); settings: mean of two separate experiments
T1 sequence (Q99640 1-499): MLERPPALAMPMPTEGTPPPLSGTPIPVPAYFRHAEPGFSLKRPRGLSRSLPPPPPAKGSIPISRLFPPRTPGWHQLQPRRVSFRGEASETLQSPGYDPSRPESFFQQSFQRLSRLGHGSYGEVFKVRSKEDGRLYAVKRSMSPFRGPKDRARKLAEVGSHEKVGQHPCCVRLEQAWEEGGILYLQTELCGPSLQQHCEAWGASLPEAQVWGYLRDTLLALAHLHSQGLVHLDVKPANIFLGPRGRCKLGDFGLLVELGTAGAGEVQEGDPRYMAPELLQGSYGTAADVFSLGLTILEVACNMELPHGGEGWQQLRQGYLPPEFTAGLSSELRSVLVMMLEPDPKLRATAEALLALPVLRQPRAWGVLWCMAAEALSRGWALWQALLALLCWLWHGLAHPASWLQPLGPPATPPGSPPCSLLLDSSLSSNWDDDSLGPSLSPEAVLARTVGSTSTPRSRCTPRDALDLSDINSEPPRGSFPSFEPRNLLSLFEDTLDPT
Experimental: The PKMYT1 kinase assay was conducted with the LanthaScreen™ Eu kinase binding method, as provided by Thermo Fisher Scientific (Waltham, MA, USA). Initially, compounds were prepared at a concentration of 4 mM in DMSO and subsequently diluted to various concentrations in 1X buffer. […] The plate was then incubated in the dark at 25 °C for 1 h, and fluorescence signals were recorded at 665 nm and 615 nm.

[8] = system: BEAS-2B cells; experiment: Anti-proliferative activity in normal lung epithelial cells BEAS-2B; format: cell-based

Compound: CCOP(=O)(OCC)c1ccc(Nc2ncc(C(=O)Nc3c(C)ccc(O)c3C)c(N)n2)cc1 [MY-14]
- apoptosis induction (in words) ([1]; HCC1569): induced apoptosis in a concentration-dependent manner; also recorded: induced apoptosis-mediated cell death
- Q1 ([1]; HCC1569, 0.5 μM): 4.66
- Q2 ([1]; HCC1569, 0.5 μM): 0.51
- Q3 ([1]; HCC1569, 0.5 μM): 18.6
- Q4 ([1]; HCC1569, 0.5 μM): 76.2
- Q1 ([1]; HCC1569, 1.0 μM): 3.91
- Q2 ([1]; HCC1569, 1.0 μM): 0.20
- Q3 ([1]; HCC1569, 1.0 μM): 21.2
- Q4 ([1]; HCC1569, 1.0 μM): 74.7
- Q1 ([1]; HCC1569, 2.0 μM): 4.24
- Q2 ([1]; HCC1569, 2.0 μM): 1.07
- Q3 ([1]; HCC1569, 2.0 μM): 40.4
- Q4 ([1]; HCC1569, 2.0 μM): 54.3
- Q1 ([1]; HCC1569, 4.0 μM): 4.11
- Q2 ([1]; HCC1569, 4.0 μM): 1.14
- Q3 ([1]; HCC1569, 4.0 μM): 46.3
- Q4 ([1]; HCC1569, 4.0 μM): 48.5
- maximal apoptotic rate ([1]; HCC1569, 5-day incubation): 47.44%
- cytotoxicity (in words) ([2]; A549, CCNE1-low): did not exhibit cytotoxicity; also recorded: reduced cytotoxicity
- IC50 ([2]; Homo sapiens, A549, lung cancer cells, low CCNE1 expression, mean ± SD, n = 3): > 8000 nM
- colony formation (in words) [3]: inhibited colony formation in a dose-dependent manner
- cell-cycle arrest (in words) [4]: arrested cell-cycle progression at the S-phase; also recorded: G1/S phase cell-cycle arrest
- distribution of G2/M-phase cells (in words) [4]: no significant impact
- proportion of G1-phase cells (in words) [4]: reducing the proportion of G1-phase cells
- proportion of S-phase cells (in words) [4]: concentration-dependent increase in the proportion of S-phase cells
- IC50 [5]: 800 ± 70 nM
- IC50 ([5]; Homo sapiens, OVCAR-3, 120 h): 820 nM
- IC50 [6]: 1060 ± 180 nM
- IC50 ([6]; Homo sapiens, HCC1569, 120 h): 1020 nM
- IC50 [7]: 2.6 nM
- cytotoxicity (in words) ([8]; BEAS-2B lung epithelial cells): did not exhibit cytotoxicity; also recorded: reduced cytotoxicity
- IC50 ([8]; Homo sapiens, BEAS-2B, lung epithelial cells, mean ± SD, n = 3): > 8000 nM
